How the values were obtained:
[1] = tested on: Sprague-Dawley rats with 5/6th nephrectomy; test: In vivo study in 5/6th nephrectomy rats, urine phosphorus excretion; parameters: species or system rat; settings: 314 mg elemental lanthanum/kg/day, oral lavage once daily for 14 days; compared to untreated rats
Protocol: Groups of six adult Sprague-Dawley rats underwent ⅚th nephrectomy in two stages over a period of 2 weeks and were then allowed to recover for a further two weeks prior to being randomized for treatment. The groups received vehicle (0.5% w/v carboxymethyl cellulose), or lanthanum oxycarbonate suspended in vehicle, once daily for 14 days by oral […] (10 ml/kg/day). The dose delivered 314 mg elemental lanthanum/kg/day. Dosing was carried out immediately before the dark (feeding) cycle on each day. Urine samples (24 hours) were collected prior to surgery, prior to the commencement of treatment, and twice weekly during the treatment period. Volume and phosphorus concentration were measured.
Feeding—During the acclimatization and surgery period, the animals were given Teklad phosphate sufficient diet (0.5% Ca, 0.3% P; Teklad No. TD85343), ad libitum. At the beginning of the treatment period, animals were pair fed based upon the average food consumption of the vehicle-treated animals the previous week.
⅚ Nephrectomy—After one week of acclimatization, all animals were subjected to ⅚ nephrectomy surgery. The surgery was performed in two stages. First, the two lower branches of the left renal artery were ligated. One week later, a right nephrectomy was performed. […]

[2] = physical and chemical properties of the phosphate binder; type: physicochemical
Excerpt: The combination compositions of the present invention are benefited by the physical and chemical properties of the phosphate binders.

dogs = test: Palatability study in dogs; type: in vivo, dog; settings: during hours post meal, 9 dogs
Excerpt: Lanthanum oxycarbonate was mixed with wet and dry dog food and presented to 9 different dogs, almost all over 40 pounds.

adult beagle dogs = test: Dog study, urine phosphate excretion; type: in vivo; settings: 2250 mg elemental lanthanum twice daily, oral capsules, cross-over; urine approximately 24 hours after dosing
Protocol: Six adult beagle dogs were dosed orally with capsules of lanthanum oxycarbonate LaCO3OH (compound A) or La2O2CO3 (compound B) in a cross-over design using a dose of 2250 mg elemental lanthanum twice daily (6 hours apart). The doses were administered 30 minutes after provision of food to the animals. At least 14 days washout was allowed between the crossover arms. Plasma was obtained pre-dose and 1.5, 3, 6, 7.5, 9, 12, 24, 36, 48, 60, and 72 hours after dosing and analyzed for lanthanum using ICP-MS. Urine was collected by catheterization before and approximately 24 hours after dosing and creatinine and phosphorus concentrations measured.

| Compound | phosphorus excretion (urine), a marker of dietary phosphorus binding [1] | stability at high temperatures [2] | solubility in aqueous media ([2]; pH above 2.0) | signs of nausea, vomiting, bloating or flatus (dogs) | urine phosphate excretion, a marker of phosphorous binding (adult beagle dogs) |
| --- | --- | --- | --- | --- | --- |
| O=C([O-])[O-].[La+3].[OH-] [lanthanum carbonate hydroxide] | decrease in phosphorus excretion |  |  |  |  |
| lanthanum oxycarbonate | decrease in phosphorus excretion | stable at high temperatures | sparingly soluble | None of the dogs exhibited signs of nausea, vomiting, bloating or flatus |  |
| O=C([O-])[O-].[La+3].[OH-] [compound A, LaCO3OH] |  |  |  |  | reduction of urine phosphate excretion |
| O=C([O-])[O-].[La+3].[La+3].[O-2].[O-2] [compound B, La2O2CO3] |  |  |  |  | reduction of urine phosphate excretion |

Source: patent US20100104664A1, “TREATMENT OF CHRONIC RENAL FAILURE AND OTHER CONDITIONS IN DOMESTIC ANIMALS: COMPOSITIONS AND METHODS” (priority 2005, published 2010)
